Data published in patent publication US10174065B2, “Antidiabetic enolic glucoside of phenylpyruvic acid” (ZADEC APS, priority 2010, dated 2019).

Test system: gene expression in liver
Assay: Quantitative real-time PCR gene expression in liver of obese, insulin resistant Wistar rats
Assay type: in vivo
Method: Three week old male rats were fed a high fat diet for 24 weeks to induce obesity and insulin resistance. Thereafter, rats were treated with 0.3 mg/kg Rx-1 daily for two weeks, and then with 3 mg/kg Rx-1 daily for seven days. Fasting glucose concentrations were measured before treatment, after two weeks treatment with 0.3 mg/kg Rx-1 and then again after seven days treatment with 3 mg/kg Rx-1. After treatment with 3 mg/kg Rx-1 rats were terminated and liver, muscle and pancreas biopsies were taken. Quantitative real-time PCR was used to measure the expression of 12 genes in liver and muscle samples, and ten genes in pancreas samples.
Rats were housed at the Primate Unit (Medical Research Council, South Africa). Rat management including feeding, glucose measurements and terminations, were done according to standard operating procedures (Diabetes Discovery Platform, Medical Research Council). Briefly, three week old rats were fed a high fat diet for 24 weeks to induce T2D. The study group consisted of thirteen rats, eight rats were treated by daily gavage with 0.3 mg/kg Rx-1 for two weeks, and then with 3 mg/kg Rx-1 for seven days. Five rats were used as controls and were treated with water only for three weeks. Rats were terminated after treatment and liver, muscle and pancreas tissue harvested and stored in RNalater (Ambion) as recommended by the manufacturer. The study was approved by the ethics committee of the Medical Research Council of South Africa.
Tissue was removed from RNAlater, weighed (80-100 mg), and placed in a 2 ml microfuge tube containing 1 ml of Trizol (Invitrogen) and a stainless steel bead (Qiagen). Tissue was homogenised in the TissueLyser (Qiagen) at 25 Hz for 6 min, centrifuged at 12,000 g for 10 min at 4° C., and the supernatant removed and incubated at room temperature for 5 min. Thereafter, 0.2 ml of chloroform (Sigma) was added, shaken vigorously for 15 sec, and then incubated at room temperature for 3 min with occasional mixing. Samples were centrifuged 12,000 g for 15 min at 4° C. and the aqueous phase was transferred to a new tube. RNA was precipitated by adding 0.5 ml isopropanol, mixed well for 30 sec, and placed at −20° C. overnight. The following day, tubes were centrifuged at 12,000 g for 20 min at 4° C. The pellet was washed with 1 ml of 75% ethanol and centrifuged at 12,000 g for 15 min at 4° C. The wash step was repeated. After the second wash, the pellet was air dried by placing tubes with their lids open (on ice) in a PCR cabinet for 2 hours. Excess liquid was removed by blotting tubes on paper towel occasionally during this incubation. The pellet was resuspended by adding 100 μl RNase-free water and incubating at 55° C. for 10 min. RNA concentrations were determined using a spectrophotometer (Nanodrop Technologies). Thereafter, RNA was purified with the RNeasy Mini Kit according to the manufacturer's instructions (Qiagen) and concentrations again determined with the Nanodrop. Genomic DNA was removed by treating RNA with Turbo DNA-free DNase (Ambion) and incubating at 37° C. for 90 min according to the manufacturer's instructions, but using 1.5× the units of DNase and incubation time recommended by the kit. In brief, 20 μg RNA was incubated with 1.5 μl (3 units) DNase, 5 μl DNase buffer, and nuclease-free water in a final reaction volume of 50 μl for 45 min at 37° C., thereafter, another 3 units of DNase was added and incubated for a further 45 min. DNase was inactivated by adding ⅕ volume (10 μl) of the DNase inactivation reagent supplied with the kit. Reactions were incubated at room temperature for 2 min, and centrifuged at 14,000 rpm for 1.5 min. The supernatant was removed and RNA concentrations were measured using the Nanodrop. The quality of the DNase-treated RNA was determined with the RNA 6000 Nano kit using the 2100 Bioanalyser Lab-on-a-Chip system as recommended by the manufacturers (Agilent technologies). […]

[1] = liver, 0.3 mg/kg two weeks then 3 mg/kg seven days
[2] = liver, not statistically significant

O=C(O)/C(=C/c1ccccc1)O[C@@H]1O[C@H](CO)[C@@H](O)[C@H](O)[C@H]1O [RX-1, 3-Phenyl-2-(3,4,5-trihydroxy-6-hydroxymethyl-tetrahydro-pyran-2-yloxy)-acrylic acid]
Pi3k expression (liver only, not significant): upregulated
Gck gene expression (liver, 0.3 mg/kg daily two weeks then 3 mg/kg daily seven days, not statistically significant): increased
Glut1 expression [1]: increased
Glut2 expression [1]: increased
IR gene expression [1]: upregulated
IRS1 mRNA levels [1]: unchanged
IRS2 gene expression [1]: increased
PPARα expression [1]: significantly upregulated
GcgR gene expression [2]: increased
SOCS1 mRNA expression [2]: increased
SOCS3 mRNA expression (liver, statistically significant): increased
